These results are taken from patent US5721266A, “Substituted imidazolinyl-imidazolines as antagonists of SH-2 binding and therapeutic uses thereof” (Warner-Lambert Company, priority 1994, dated 1998).

For experiment [1], the target named is T1, [35S]abl SH-2 / activated EGF receptor (Homo sapiens, UniProt P00519).
T1 construct: containing the SH-2 domain of abl; made in house; host or cells: abl SH-2 fusion: bacteria, labelled in vivo with 35S; EGFR partner: EGF-treated 3T3 cells transfected with human EGFR, immunoprecipitated
T1 sequence (P00519 127-217 limits assumed): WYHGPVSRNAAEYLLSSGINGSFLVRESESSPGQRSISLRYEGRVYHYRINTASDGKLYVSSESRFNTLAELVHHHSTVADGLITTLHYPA
Kind of experiment: in vitro inhibition of [35S]abl SH-2 interactions with activated EGF receptor. To be noted: for IC50: [35S]abl SH-2 binding to activated EGF receptor, read-out: IC50. Format: binding. The procedure:
The ability of some of the preferred compounds of the present invention to inhibit SH-2 interactions with activated tyrosine kinase receptors was measured using an in vitro biological assay. The test assesses the ability of a test compound to inhibit the interaction of [^35 S]abl SH-2 with activated EGF receptors, or with other receptor tyrosine kinases.
A bacterial glutathione-S-transferase fusion protein, containing the SH-2 domain of abl, is labelled in vivo with ^35 S. Phosphorylated EGFR is purified from EGF-treated 3T3 cells transfected with the human EGFR by precipitation with anti-EGFR antisera. The resulting immune complex is bound to protein A--Sepharose beads. Binding of the ^35 S labelled abl fusion protein (77 nM) to the purified EGFR beads complex (approximately 1 μg of receptor/assay) is allowed to proceed to equilibrium (30 minutes) in a total volume of 0.4 mL, in the presence of the test compounds. Bound ^35 S fusion protein is separated from free by filtration through 0.65 μ DUPP filters, and radioactivity is determined by scintillation counting.
Results of the binding study are expressed in Table 1 as IC50 values, i.e., the concentration of test compound required to inhibit [^35 S]abl SH-2 interactions with the activated EGF receptor.

The subject of experiment [2] is Rat Aortic Smooth Muscle Cells (RASMC). Kind of experiment: [3H]Thymidine Incorporation Assay, smooth muscle cell proliferation stimulated by serum. Format: cell-based. To be noted: 22 hours. As for the experimental part:
(§1) SH-2 tyrosine kinase inhibitors may block the signal transduction pathways for platelet derived growth factor ("PDGF") and fibroblast growth factor ("FGF"), which have been implicated in the control of smooth muscle cell proliferation. The ability of some of the preferred compounds of the present invention to inhibit smooth muscle cell (SMC) proliferation stimulated by PDGF or serum was measured using the biological assay discussed below.
(§2) Rat Aortic Smooth Muscle Cells (RASMC) were plated into a 24-well plate (30,000 cells/well) in DMEM with 10% Fetal Bovine Serum (FBS). After 4 days cells reached confluence and were made quiescent by incubation in DMEM/F12 medium (Gibco) containing 0.2% FBS for another 2 days. Incubation with the growth factors, PDGF-BB and bFGF as well as FBS, and test compound was carried out in 0.5 mL/well serum-substituted medium (DMEM/F12+1% CPSR-2 from Sigma) for 22 hours. After 18 hours, 0.25 μCi/well [^3 H]thymidine was added. Four hours later the incubation was stopped by removing the radioactive media, washing the cells twice with 1 mL cold phosphate-buffered saline, and then washing 2 times with cold 5% trichloroacetic acid. The acid-insoluble fraction was lysed in 0.75 mL 0.25N NaOH and the radioactivity determined by liquid scintillation counting.
(§3) Smooth muscle cells were isolated from the thoracic aorta of rats (RASMC) and explanted according to the method of Ross, et al., Cell Biology 50:172-186 (1971). Cells were grown in Dulbecco's modified Eagle's medium (DMEM, Gibco) containing 10% fetal calf serum (FBS, Hyclone, Logan, Utah), 1% glutamine (Gibco), and 1% penicillin/streptomycin (Gibco). Cells were identified as smooth muscle cells by their "hill and valley" growth pattern and by fluorescent staining with a monoclonal antibody specific for SMC α-actin (Sigma). RASMC were used between passages 5 and 20 for all experiments. Test compounds were prepared in dimethylsulfoxide (DMSO) in order to achieve consistency in the vehicle and to ensure compound solubility. Appropriate DMSO controls were simultaneously evaluated with the test compounds.
(§4) The results of the cellular proliferation assay are expressed in Table 2 as IC50 values, i.e., the concentration of test compound required to inhibit [^3 H]thymidine incorporation into smooth muscle cells.
(Dividing cells build labelled thymidine or BrdU into new DNA.)

Experiment [3] has the same test system. Kind of experiment: [3H]Thymidine Incorporation Assay, smooth muscle cell proliferation stimulated by PDGF. Format: cell-based. The note with it: 22 hours. As for the experimental part: as §1, §2, §3, §4
For another experiment, the system named is K562. Kind of experiment: inhibition of growth of tumor cells, K562. The note with it: 96 h, human chronic myelogenous leukemia, expresses p210 bcr-abl, 4 days. The class given is cell-based. The procedure: (§5) In one screen, K562 human erythroleukemic cells were seeded at 6×10^4 cells/mL in RPMI 1640 medium containing 10% fetal bovine serum. These cells score positively for the Philadelphia chromosome, and are known to be transformed by the bcr-abl oncogene. At the time of seeding, test compound, or vehicle (DMSO), were added. Cells were counted 4 days after seeding using a hemocytometer.
The results of this experiment for a representative compound of the present invention appears in Table 3. Test Compound A is N,N'-decamethylenebis[2-amino-1-(2-imidazolin-2-yl)-2-imidazoline, dihydroiodide. The inhibition of growth of tumor cells is expressed as IC50 values; i.e., the concentration of test compound required to inhibit growth of the tumor cells by 50%.

For a further experiment, the system named is KG-1A. Kind of experiment: inhibition of growth of tumor cells, KG-1A. The class given is cell-based. To be noted: human acute myelogenous leukemia, no bcr-abl.
In the next experiment the test system is MOLT-4. Briefly: inhibition of growth of tumor cells, MOLT-4. The class given is cell-based. To be noted: human acute lymphoblastic leukemia, no bcr-abl.
The test system of a further experiment is A431. Briefly: inhibition of growth of tumor cells, A431. The class given is cell-based. The note with it: A-431, human epidermoid carcinoma, overexpresses EGF receptor.
A further experiment relates to SWISS 3T3. Briefly: inhibition of cell growth, SWISS 3T3. Format: cell-based. The note with it: mouse fibroblast.
The test system of another experiment is HCT-8. Kind of experiment: inhibition of growth of tumor cells, HCT-8. Format: cell-based. The note with it: human colon carcinoma, 18,000 EGF receptors/cell.
A further experiment relates to L1210. Briefly: inhibition of growth of tumor cells, L1210. To be noted: mouse lymphocytic leukemia. Format: cell-based.
The test system of another experiment is MCF-7. Briefly: inhibition of growth of tumor cells, MCF-7. The note with it: Homo sapiens, MCF7, estrogen dependent breast adenocarcinoma, 3000 EGF receptors/cell, some erbB2. Format: cell-based.
Another experiment concerns MDA-231. Briefly: inhibition of growth of tumor cells, MDA-231. The class given is cell-based. The note with it: Homo sapiens, MDA-MB-231, breast adenocarcinoma, moderate EGFR and erbB2.
In the next experiment the test system is MDA-468. Kind of experiment: inhibition of growth of tumor cells, MDA-468. To be noted: estrogen independent breast adenocarcinoma, overexpresses EGF receptor. Format: cell-based.
The next experiment has as its system NIH 2.2. Briefly: inhibition of cell growth, NIH 2.2. The class given is cell-based. To be noted: mouse fibroblast, no EGF receptor.
In a further experiment the test system is NIH EGF-R. Briefly: inhibition of cell growth, NIH EGF-R. Format: cell-based. To be noted: mouse fibroblast, high expression of EGF receptor.
Experiment [4] deals with K562 cell line. Kind of experiment: viability of the K562 cell line (FIGS. 1 and 2). Format: cell-based, human. The procedure: as §5
(§6) In this example, an experiment was conducted to determine the inhibition of the growth of tumor cells from the K562 cell line upon exposure to Test Compound A specified in Example 3. The screen was conducted as described in Example 3.

Experiment [5] deals with K562 cell line. Kind of experiment: proliferation of K562 cell line (FIG. 3). The class given is cell-based, human. To be noted: FIG. 3, wide range of concentrations. As for the experimental part: as §5, §6
In the next experiment the test system is KG-1A cell line. Kind of experiment: proliferation of KG-1A cell line (FIG. 3). Format: cell-based, human. To be noted: FIG. 3, wide range of concentrations. The procedure:
[The procedure below names another cell line; the source lists this cell line under the same test.] as §5, §6

Molecules are shown by their SMILES. pIC50: −log10 of the molar value. Like-named read-outs stand apart in the source and are kept apart here.

One may read the IC50 as the midpoint of a concentration-inhibition curve. Broadly, the pIC50 is −log10 of the IC50, conventionally taken in molar units.

`C(CCNC1=NCCN1C1=NCCN1)CNC1=NCCN1C1=NCCN1`: the IC50 in experiment [1] (values in μM) was 27 µM.

In the case of `C(CCNC1=NCCN1C1=NCCN1)CCNC1=NCCN1C1=NCCN1`, the IC50 in experiment [1] (values in μM) is 259 µM. For the same compound, the pIC50 was less than 4.00 in [2] and 4.13 in [3].

For the compound `C(CCCNC1=NCCN1C1=NCCN1)CCNC1=NCCN1C1=NCCN1`, in experiment [1] (values in nM), the IC50 turned out to be 0.1 µM.

Turning to `C(CCCNC1=NCCN1C1=NCCN1)CCCNC1=NCCN1C1=NCCN1`, the IC50 in experiment [1] (values in μM) stood at 38 µM.

Take `C(CCCCNC1=NCCN1C1=NCCN1)CCCNC1=NCCN1C1=NCCN1`: in experiment [1] (values in μM), the IC50 was 33 µM. Further, the pIC50 in experiment [2] was 4.21; in experiment [3], 4.40.

As to `C(CCCCNC1=NCCN1C1=NCCN1)CCCCNC1=NCCN1C1=NCCN1`, the pIC50 in experiment [1] is 5.89.

As for `C(CCCCCNC1=NCCN1C1=NCCN1)CCCCCNC1=NCCN1C1=NCCN1`, the IC50 in experiment [1] (values in nM) turned out to be 0.6 µM.

In turn, `C(CCCCCCNC1=NCCN1C1=NCCN1)CCCCCNC1=NCCN1C1=NCCN1` showed a pIC50 in experiment [1] of 5.92.

As for `C(CN=C1NCCN1C1=NCCN1)CN1CCN(CCCN=C2NCCN2C2=NCCN2)CC1` [2-(3-{4-[3-(4,5,4',5'-Tetrahydro-3H,1'H-[1,2']biimidazolyl-2-ylideneamino)-propyl]-piperazin-1-yl}-propylimino)-2,3,4,5,4',5'-hexahydro-1'H-[1,2']biimidazolyl], in experiment [1] (values in μM), the IC50 is 10 µM.

For the compound `CCCCCCCCCCCCCCCCCNC1=NCCN1C1=NCCN1` [2-(Heptadecylamino)-1-(2-imidazolin-2-yl)-2-imidazoline, monohydroiodide], the IC50 in experiment [1] (values in μM) worked out at 1.32 µM. For the same compound, the pIC50 in experiment [2] and in experiment [3] was greater than 6.00 throughout.

With `CCCCCCCCCCCCCN=C1NCCN1C1=NCCN1` [(4,5,4',5'-Tetrahydro-3H,1'H-[1,2']biimidazolyl-2-ylidene)-tridecyl-amine], the IC50 in [1] (values in μM) was determined as 50 µM.

Regarding `C(CCCCCNC1=NCCN1C1=NCCN1)CCCCNC1=NCCN1C1=NCCN1` [Compound A], the IC50 in [1] (values in nM) came out at 0.05 µM. For the same compound, the pIC50 in experiment [2] is 5.30; in experiment [3] it was 5.55; with K562, 6.22; with KG-1A it was 4.00; with MOLT-4 it was 5.68; in the experiment on A431, 5.36. In addition, the pIC50 is less than 4.30 with SWISS 3T3; 5.18 in the experiment on HCT-8; 6.00 in the experiment with L1210; 5.11 in the experiment on MCF-7; 4.85 with MDA-231; 6.05 in the experiment on MDA-468. For the same compound, the pIC50 with NIH 2.2 and with NIH EGF-R was less than 4.60 throughout. Moreover, the “viability of the K562 cell line” value in the experiment with K562 cell line [4] (FIG. 1, increased concentrations) is given as “steadily decline”. Also, the “viability of the K562 cell line over time” value in the experiment with K562 cell line [4] (FIG. 2, 3 μM versus 0.3 μM, compared against a control) was “substantially greater effect at decreasing the viability”. Moreover, the “growth rate of the K562 cell line” value in the experiment with K562 cell line [5] is given as “substantially decreased”. The “growth rate of the KG-1A cell line” value in the experiment with KG-1A cell line is reported as “only slightly decreased”.

As to `CCCCCCCNC1=NCCN1C1=NCCN1` [drawing 7, 2-(Heptylamino)-1-(2-imidazolin-2-yl)-2-imidazoline, monohydroiodide], the IC50 in experiment [1] (values in μM) fell in the range of 10 to 100 µM.

As for `C1CCCCCC(NC2=NCCN2C2=NCCN2)CCCCC1` [drawing 11, 2-Cyclododecylamino-1-(2-imidazolin-2-yl)-2-imidazoline, monohydroiodide], the IC50 in experiment [1] (values in μM) is greater than 100 µM.

As for `CCCCCCCNC1=NCCN1C1=NCCN1` [drawing 21, 2-(Heptylamino)-1-(2-imidazolin-2-yl)-2-imidazoline, monohydroiodide], the pIC50 is 5.19 in experiment [2] and 5.52 in experiment [3].

Take `C1CCCCCC(NC2=NCCN2C2=NCCN2)CCCCC1` [drawing 25, 2-Cyclododecylamino-1-(2-imidazolin-2-yl)-2-imidazoline, monohydroiodide]: the pIC50 in experiment [2] is 5.96; in experiment [3], greater than 6.00.
